Results: patent US10875829B1, “Azetidine derivatives useful as modulators of cortical catecholaminergic neurotransmission” (Integrative Research Laboratories Sweden AB, priority 2016, dated 2020)
Structures can show the parent of a compound that is named as a salt. Marks after values point to notes of the source that are not given here.

Columns and labels:
[1] = test system: Arc mRNA; test: m-RNA analysis: tissue levels of Arc in brain regions; type: in vivo, rats; conditions: 33 μmol/kg s.c., 65 min before sacrifice, control saline, n=5
Method: Sesack et al. (Anatom Substr Glut-Dopamine Inter. Annals of NY AcadSci, 2003, 1003; 36-52) discloses that the dopaminergic systems of the brain interact strongly with central glutamate neurotransmission. To investigate potential effects of compounds as disclosed herein on cortical and striatal NMDA type glutamate receptor related synaptic signaling, Arc mRNA induction was assessed upon acute administration. Arc (Arc/Arg3.1-activity regulated cytoskeleton-associated protein/activity-regulated gene 3.1; (Link W et al., Proc Natl Acad Sci, USA, 1995, 92; 5734-8 and Lyford G L et al., Neuron, 1995, 14; 433-45), is an immediate early gene (IEG), induced by synaptic activity, whose expression and localization at synaptic sites is triggered specifically by NMDA receptor activation and strongly related to neural plasticity (Steward and Worley, Neuron, 2001, 30; 227-40, Kawashima et al., PNAS, 2009, 106(1); 316-21 and Bramham et al., Exp Brain Res, 2010, 200; 125-40).
Animals were killed 60 min after the injection of the drugs by decapitation and the brains were dissected into […] different areas: Limbic system (containing nucleus accumbens, most parts of the olfactory tubercle, ventral pallidum), striatum, frontal cortex, hippocampus and the remaining cortex.
Total RNA was prepared by the guanidin isothiocyanate method (Chomczynski P and Sacchi N, Anal Biochem, 1987, 162(1); 156-9). RNA pellets were solved in RNAse-free water and stored at −80° C. The sample concentration was determined spectrophotometrically by a NanoDrop ND1000 (Saveen Werner). A quality indicator number and an integrity number of r-RNA were measured with an Experion (Bio-rad).
A two-step reversed transcription was performed by using a SuperScript III kit (Invitrogen). 1 μg of total RNA was reverse transcribed with 5 μl 2XRT Reaction Mix, 1 μl RT Enzyme Mix, in a total volume adjusted to 10 μl with DEPC-treated water. 1 U of E. coli RNase H was added. c-DNA was diluted 40 times and stored at −20° C.
Three sequences (one gene of interest and two reference genes) were amplified together in a triplex PCR-reaction. For real-time PCR measurements: 5 μl of c-DNA reaction was amplified in a 20 μl reaction mixture containing 10 μl PerfeCta Multiplex qPCR Supermix (Quanta, VWR), 3.5 μl RNAse-free water, 0.15 μM of each primer and 0.1 μM of each probe. Real-time PCR was measured on CFX96 (Bio-rad) using the following settings for all genes: 3 min pre-incubation at 95° C. followed by 40 cycles of denaturation at 95° C. for 15 s, annealing and elongation at 60° C. for 1 minute.
Reference genes are HPRT and cyclophilin.
Compounds and saline solution (control) as indicated above were administered s.c. 65 min before sacrificing the animals. Results are presented as percent of control means±SEM. Statistical significance was assessed using Student's t-test (2 tailed) vs controls. * denotes p<0.05, ** p<0.01, n=5, *** p<0.001, n=5.
Correct PCR products are confirmed by agarose gel electrophoresis (2%) PCR products are purified with PCR purification kit from Qiagen (Valencia, Calif., USA). All genes are sequenced at MWG, Germany. The amounts of gene of interests are normalized with the two reference genes HPRT and cyclophilin A with the equation delta-delta CT.

[2] = test system: human alpha 2A adrenergic receptor and/or the non-selective adrenergic alpha 2 receptor; test: In vitro binding studies, adrenergic alpha 2 receptors ([3H]RX 821002); parameters: species or system human and/or rat; conditions: concentration of 10 μM
Method: (The measurement was performed as described in Langin, D., Lafontan, M., Stilling, M. R. and Paris, H. (1989), [3H]RX821002: a new tool for the identification of alpha2A-adrenoceptors, Eur. J. Pharmacol. 167: 95.)
Cell membrane homogenates (48 μg protein) were incubated for 60 min at 22° C. with 1 nM [3H]RX 821002 in the absence or presence of the test compound in a buffer containing 50 mM Tris-HCl (pH 7.4), 2 mM MgCl2 and 1 mM EDTA. Nonspecific binding was determined in the presence of 100 μM (−)epinephrine. Following incubation, the samples were filtered rapidly under vacuum through glass fiber filters (GF/B, Packard) presoaked with 0.3% PEI and rinsed several times with ice-cold 50 mM Tris-HCl using a 96-sample cell harvester (Unifilter, Packard). The filters were dried then counted for radioactivity in a scintillation counter (Topcount, Packard) using a scintillation cocktail (Microscint 0, Packard).
The results are expressed as a percent inhibition of the control radioligand specific binding.
(antagonist radioligand). Membrane homogenates (rat) of cerebral cortex (160 μg protein) were incubated for 60 min at 22° C. with 0.5 nM [3H]RX 821002 in the absence or presence of the test compound in a buffer containing 50 mM Tris-HCl (pH 7.4), 2 mM MgCl2 and 1 mM EDTA. Nonspecific binding was determined in the presence of 100 μM (−)epinephrine. Following incubation, the samples were filtered rapidly under vacuum through glass fiber filters (GF/B, Packard) presoaked with 0.3% PEI and rinsed several times with ice-cold 50 mM Tris-HCl using a 96-sample cell harvester (Unifilter, Packard). The filters were dried then counted for radioactivity in a scintillation counter (Topcount, Packard) using a scintillation cocktail (Microscint 0, Packard). The results are expressed as a percent inhibition of the control radioligand specific binding. The standard reference compound was yohimbine, which was tested in each experiment at several concentrations to obtain a competition curve from which its IC50 was calculated.

[3] = test system: SERT, NET and/or DAT; test: Radioligand binding assays at the monoamine transporters, general statements; parameters: species or system human; conditions: concentration of each tested compound 10 μM
Description: A serotonin-norepinephrine-dopamine reuptake inhibitor (SNDRI), also known as a triple reuptake inhibitor (TRI), is a type of drug that acts as a combined reuptake inhibitor of the monoamine neurotransmitters serotonin, norepinephrine, and dopamine. It does this by concomitantly inhibiting the serotonin transporter (SERT), norepinephrine transporter (NET), and dopamine transporter (DAT), respectively. Inhibition of the reuptake of these neurotransmitters increases their extracellular concentrations and, therefore, results in an increase in serotonergic, adrenergic, and dopaminergic neurotransmission across the brain. However, the use of triple re-uptake inhibitors (especially the inhibition of DAT) in humans are of potential concern due to abuse liability. Cocaine is the most well-known triple-uptake inhibitor and is widely encountered as a drug of abuse. […] One assay to measure affinity of said compounds as described herein may be the percent inhibition from radioligand binding assay using cells expressing human transporters and receptors (Table 5), wherein the concentration of each tested compound in such assay is 10 μM. Alternatively other assays known to the skilled person may be used to measure the affinity of said compounds, wherein the concentration of each tested compound in such assay is 10 μM.
Each compound was tested in a single concentration at 1.0 E-5 M and in duplicate. […]

| inhibition of the binding of a radioactively labeled ligand [2] | affinity to SERT, NET and/or DAT (percent inhibition) [3] | SMILES | Arc frontal cortex ± SEM [1] | Arc striatum ± SEM [1] |
| --- | --- | --- | --- | --- |
| more than 93% | – | Fc1cccc(OC2CNC2)c1F [Example 1A, 3-(2,3-difluorophenoxy)azetidine hydrochloric acid salt] | 236 ± 9*** % of control means | 149 ± 11* % of control means |
| – | – | Fc1cc(F)c(F)c(OC2CNC2)c1 [Example 2, 3-(2,3,5-trifluorophenoxy)azetidine hydrochloric acid salt] | 96 ± 20 % of control means | 104 ± 12 % of control means |
| more than 93% | – | Fc1cc(F)c(F)c(OC2CNC2)c1F [Example 3, 3-(2,3,5,6-tetrafluorophenoxy)-azetidine hydrochloric acid salt] | 149 ± 11** % of control means | 141 ± 9.0** % of control means |
| more than 93% | – | Fc1ccc(F)c(OC2CNC2)c1F [Example 20, 3-(2,3,6-trifluorophenoxy)azetidine hydrochloric acid salt] | – | – |
| – | – | Fc1cc(F)cc(OC2CNC2)c1.O=C(O)C(O)C(O)C(=O)O [Example 52B, 3-(3,5-difluorophenoxy)azetidine (+)-tartaric acid salt] | 148 ± 6.9** % of control means | 106 ± 7.1 % of control means |
| more than 93% | – | Fc1cc(F)cc(OC2CNC2)c1 [Example 52C, 3-(3,5-difluorophenoxy)azetidine hydrochloric acid salt] | – | – |
| – | higher than 75% | Clc1ccc(OC2CNC2)cc1Cl [Reference Compound, 3-(3,4-dichlorophenoxy)azetidine hydrochloric acid salt, reference compound] | – | – |
